Data taken from patent US12668646B2, “Cross-linking compounds and methods of use thereof” (North Carolina State University, priority 2019, dated 2026).
Where “and” joins values, the source holds several entries; their conditions need not be identical. Equal entries are not always repeated.

What was measured:
Assay type in all cases: biochemical
[1] = molecular target: T1, β-glucosidase from Agrobacterium sp. (Agrobacterium sp., UniProt P12614); assay: Oligomerization of compound V with β-glucosidase
T1 construct: purchased Megazyme
T1 sequence (P12614 1-459): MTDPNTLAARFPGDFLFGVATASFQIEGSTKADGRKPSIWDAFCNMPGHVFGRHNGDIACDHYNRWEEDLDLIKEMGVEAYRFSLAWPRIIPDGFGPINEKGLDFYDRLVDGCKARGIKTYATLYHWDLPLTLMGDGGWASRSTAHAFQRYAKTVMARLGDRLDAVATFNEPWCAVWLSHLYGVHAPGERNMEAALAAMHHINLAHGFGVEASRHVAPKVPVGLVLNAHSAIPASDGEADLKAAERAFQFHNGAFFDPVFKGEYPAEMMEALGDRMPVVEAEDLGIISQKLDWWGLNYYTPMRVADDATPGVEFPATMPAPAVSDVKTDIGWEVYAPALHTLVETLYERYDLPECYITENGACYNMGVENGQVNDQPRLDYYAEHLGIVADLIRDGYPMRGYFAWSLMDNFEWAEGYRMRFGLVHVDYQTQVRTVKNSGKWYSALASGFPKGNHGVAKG
Protocol: The oligomerization of compound V was examined by treatment with the enzyme […]-glucosidase. The reaction mixture contained 50 μM of compound V and 200 nM of β-glucosidase (250-fold ratio). The reaction mixture was only faintly blue but upon centrifugation after 5 h of incubation, a blue precipitate was obtained. According to the colors of samples (FIG. 13, panel A), the yield of precipitate is low by comparison with our previously reported enzyme-substrate pairs (see Example 1). Multiple additions of enzyme (4×0.20 μM of enzyme stock, every 2 h) and longer incubation times (10 h or 24 h) were also tested but no increase in solution intensity or precipitate was observed. For the samples after 300 min of incubation, the precipitates suspended in H2O were screened by optical microscopy (FIG. 13, panel B) and DLS (FIG. 13, panel C). The size of aggregates is between 100 and 1000 nm as measured by DLS, which is consistent with the images obtained by optical microscopy (˜1 μm).
Quantitation of the indigogenic compounds in the precipitate and supernatant was carried out by absorption spectroscopy and multicomponent analysis (MCA) (M. Taniguchi, et al., Photochem. Photobiol., 2018, 94, 277-289) (FIG. 13, panels D and E). MCA analysis is essential due to the overlaid spectra of indigo and coumarin at 362 nm, the peak wavelength for the coumarin. Spectral deconvolution relied on knowledge of the molar absorption coefficient at 362 nm of coumarin (εcou362=2.0×10^4 M^−1 cm^−1 measured in DMF) and indigo model compound F19 (see Example 1 where F-19 is compound 43) shown in Chart 2 (εind362=0.81×10^4 M^−1 cm^−1 measured in DMSO/H2O, v/v=2/1); and the molar absorption coefficient of F19 at 630 nm (εind630=2.6×10^4 M^[…] cm^−1, measured in DMSO/H2O, v/v=2/1). The residual upon MCA was smaller than any of the components, as required for accurate analysis (Y. Mang, et al., Phytochem. Anal., 2018, 29, 205-216). In this manner, the precipitate is composed of 51.6 nmol of coumarin and 2.8 nmol of indigoid dye; the supernatant is composed of 11.1 nmol of coumarin and 0.3 nmol of indigoid dye.
Materials. DMF (HPLC grade) was purchased from Alfa Aesar. H2O (molecular biology grade) for buffer preparation was purchased from Millipore Sigma. Compound V (5.6 mg) was dissolved in DMF (26 μL) to prepare 100 mM stock solution. Pi buffer was prepared freshly at 10 mM, pH 7. The enzyme β-glucosidase from Agrobacterium sp. was purchased from MegaZyme and was dissolved in Pi buffer at 10 μM to prepare the stock solution.
To screen the oligomerization procedure of compound V, samples of Pi buffer (1859 μL), DMF (100 μL), β-glucosidase stock (40 μL) and compound V stock (1 μL) were mixed in a 2-mL Eppendorf tube. The resulting mixed sample (2.0 mL) contains 50 μM of compound V as the substrate and 0.20 μM of β-glucosidase as the enzyme. Three identical samples were prepared for different assays. For a control sample, 40 μL of Pi buffer was added as a replacement for the β-glucosidase stock solution. The tubes were incubated at 37° C. for 5 h, and pictures of the tubes were captured at 0, 15, 30, 60, 120, 180 and 300 min. After 300 min, the tubes were centrifuged at 20,000×g for 10 min to isolate any precipitate from the supernatant. No precipitate formed in the control sample.
Three samples were treated differently for three assays: (1) for sample 1, the precipitate was dissolved in 100 μL of DMF for absorption screening; (2) for sample 2, the precipitate was suspended in 100 μL of H2O for microscopic imaging; and (3) for sample 3, the precipitate was suspended in 1000 μL of H2O for dynamic light scattering (DLS) assay. The supernatant of sample 1 was freeze-dried under high vacuum and afterwards dissolved in 100 μL of DMF for absorption screening. The absorption spectra of the precipitates and supernatants were employed for quantitation of indigo and coumarin. […]

[2] = system: β-glucosidase from almonds; assay: Indigogenic reaction with β-glucosidase from almonds
[3] = system: tritosomes; assay: Indigoid dye formation with tritosomes; conditions: result in words
Protocol: The results from the glucosidase survey prompted several further experiments. First, a parallel set of studies was carried out with inclusion of several oxidants commonly employed in histochemical studies, given that the indigoid dye forming process requires the presence of an oxidant. […] The activity of the β-glucosidase was affected only slightly in the presence of a non-ionic detergent. To verify that the results observed in Table 1 were reliable, a 5-mg scale reaction of 33 was carried out to isolate indigo 43, which was obtained in 66% yield (Scheme 7). The 66% isolated yield corresponded well with the enzymatic yield of […] (Table 1, entry 15).
General methods. β-Glucosidase from almonds (lyophilized powder, ≥2 units/mg solid) and peroxidase from horseradish were purchased from Sigma-Aldrich. β-Glucosidase from Agrobacterium sp. (recombinant, suspension in 3.2 M (NH4)2SO4) was purchased from Megazyme; the concentration in solution was determined by absorption spectroscopy with E^0.1%=2.20 cm^−1 at 280 nm.^37 Tritosomes were purchased from XenoTech. Rat liver homogenate was purchased from MP Biomedicals.

[4] = molecular target: T2, β-glucosidase from Agrobacterium (Agrobacterium sp., UniProt P12614); assay: Indigogenic reaction with β-glucosidase from Agrobacterium
T2 construct: purchased Megazyme
T2 sequence (P12614 1-459): T1 sequence (P12614 1-459)
Protocol: Next, the β-glucosidase from Agrobacterium sp. was investigated as the trigger enzyme for indigoid dye formation. […] The reaction was carried out using the enzyme (200 nM) and indoxyl-glucoside 33 (100 μM) in phosphate buffer (pH 4-9, containing 2% DMF) at 37° C. […] Note that with 200 nM enzyme and 100 μM substrate, complete reaction requires 500 turnovers of each enzyme.
Reactions with β-glucosidase from Agrobacterium. An indoxyl compound in DMF (2 μL, 5 mM) and β-glucosidase from Agrobacterium in 10 mM phosphate buffer [2 μL, 10 μM, pH 7.0, containing 50 mM NaCl and 0.6 M (NH4)2SO4] were mixed with 50 mM phosphate buffer (96 μL, pH 7.0). The reaction mixture was incubated at 37° C. for 2 h and then centrifuged for 3 min. Any precipitate was separated from the supernatant and dissolved in DMF (200 μL). The resulting solution was analyzed by absorption spectroscopy. The experiment was repeated three times.

[5] = molecular target: T2, β-glucosidase from Agrobacterium; assay: Enzyme-triggered oligomerization of bis(indoxyl-glucoside) 46
Protocol: Oligomerization of 46 was carried out by treatment with β-glucosidase from Agrobacterium (200 nM) in 10 mM phosphate buffer (pH 7) at 37° C. for 2-4 h (Scheme 9). Precipitation occurred during the reaction. After centrifugation, the precipitate was separated from the supernatant, washed with H2O, and dried to afford a blue solid.
The efficacy of the indigogenic oligomerization was examined under a variety of conditions. As shown in entries 1-4 in Table 2, the yield of indigoid dye in the supernatant versus precipitate reversed as the concentration of 46 was decreased from 300 to 10 μM, although the total yields were in the range 17-29%. While the reactions in entries 1-4 were carried out in phosphate buffer containing NaCl (0.05 M), those of entries 5 and 6 (with 300 and 50 μM of 46, respectively) were conducted in NaCl-free phosphate buffer. The use of NaCl-free phosphate buffer facilitated extraction of the indigoid dye in the supernatant for analysis.
The time course of the oligomerization was examined under the reaction conditions listed in entry 5 of Table 2, with 300 μM of 46. Noticeable changes include observation of blue clouding and color deepening at 20 min. Centrifugation enabled isolation of the precipitate. […] The absorption spectrum of the precipitate was examined in DMF/DMSO (9:1) and compared with that of the extracted supernatant (in DMF) and 43 (in DMF) (FIG. 10D). […] Size-exclusion chromatography (SEC) [DMF/DMSO (9:1) as eluent] was applied to the precipitate and to the supernatant extract prepared from 300 μM of 46 (FIG. 10E). The first peak appeared at 18-20 min, and then the second peak at 38.5 min. The ratio of peak areas in the supernatant extract was 11:89, whereas that in the precipitate was 93:7. On the basis of a calibration curve prepared with poly(2-vinylpyridine) standards, the molecular size for the first and second peaks was expected to be >265 and <1 kDa, respectively. The large molecular size indicated for the first peak likely implies aggregation or assembly of the oligomers. The chromatograms for the samples prepared with 50 μM of 46 gave similar results but with higher purity compared with those at higher concentration.

[6] = 100 nmol compound V added, absorption spectroscopy and MCA
[7] = absorption spectroscopy and MCA
[8] = indoxyl 1 mM, enzyme 1 unit/mL, 0.01M acetate buffer pH 5, 5% DMF, 37° C., 16-19 h, ϵ = 1.27 × 10^4 M^−1 cm^−1 measured for 4

With “2,4-Bis[1-(3-(β-D-glucopyranosyloxy)-4,6-dibromo-1H-indol-5-yl)-1,4,7,10-tetraoxadec-10-yl]-6-[14-(3-(2-(1-azido-3,6,9,12,15-pentaoxoheptadecylamino)-4-[12-((4-methyl-2H-chromen-2-one-7-yl)amino)ethylamino]-1,3,5-triazin-6-yloxy)propyl)-4-(3-sulfopropyl)piperazin-1-yl]-1,3,5-triazine [Compound V]” the “Indigoid dye in the precipitate” value [1, 6] was 2.8 nmol, the “Indigoid dye in the supernatant” value [1, 6] was 0.3 nmol and the “Yield of indigoid dye (total)” value ([1]; 50 μM compound V, 200 nM β-glucosidase, 37° C., 5 h, MCA) was 3.1%. The “Coumarin in the precipitate” value [1, 7] was 51.6 nmol, the “Coumarin in the supernatant” value [1, 7] was 11.1 nmol and the “Size of aggregates (optical microscopy)” value ([1]; precipitate after 300 min suspended in H2O) was about 1 μm. The “Total quantity of indigoid dye” value ([1]; precipitate plus supernatant) was 3.1 nmol and the “Total amount of coumarin calculated by MCA” value ([1]; precipitate plus supernatant, 100 nmol compound V added) was 62.7 nmol.

“5-[(Benzylcarbamoyl)oxy)]-1H-indole-3-yl β-D-glucopyranoside [Compound 16]” was tested, and the “Yield (%) β-glucosidase from almonds” value [2, 8] was 24% and the “Indigoid dye formation with tritosomes” value [3] was “low yield”.

With “5-bromo-4-chloroindoxyl β-glucoside [Compound 42, reference compound]” the “Yield (%) β-glucosidase from almonds” value ([2]; as E1 but ϵ = 2.00 × 10^4 M^−1 cm^−1 reported for 5,5′-dibromo-4,4′-dichloroindigo) was 74% and 74^e %.

In the case of “5-{[(1R,8S,9s)-Bicyclo[6.1.0]non-4-yn-9-yl]methoxy}-4,6-dibromo-1H-indole-3-yl β-D-glucopyranoside [Compound 30]”, the “Yield (%) β-glucosidase from Agrobacterium” value ([4]; as E4 but ϵ = 2.6 × 10^4 M^−1 cm^−1 measured for 43) is reported as 10% and 10 ± 0.4% and the “Yield (%) β-glucosidase from Agrobacterium” value ([4]; indoxyl 100 μM, enzyme 200 nM, 0.05M phosphate buffer pH 7.0, 2% DMF, 37° C., 2 h, n=3, ϵ = 1.27 × 10^4 M^−1 cm^−1) is reported as 21 ± 1%.

In the case of `COC(=O)COc1ccc2[nH]cc(O[C@@H]3O[C@H](CO)[C@@H](O)[C@H](O)[C@H]3O)c2c1` [Compound 22, 5-(Methoxycarbonyl)methoxy-1H-indol-3-yl β-D-glucopyranoside], the “Yield (%) β-glucosidase from almonds” value [2, 8] is reported as under 1%.

`COC(=O)COc1ccc2[nH]cc(O[C@@H]3O[C@H](CO)[C@@H](O)[C@H](O)[C@H]3O)c2c1Br` [Compound 23, 4-Bromo-5-(methoxycarbonyl)methoxy-1H-indol-3-yl β-D-glucopyranoside] was tested, and the “Yield (%) β-glucosidase from almonds” value [2, 8] was 68%.

`C#CCOc1ccc2[nH]cc(O[C@@H]3O[C@H](CO)[C@@H](O)[C@H](O)[C@H]3O)c2c1` [Compound 25, 5-Propargyloxy-1H-indol-3-yl β-D-glucopyranoside] was tested, and the “Yield (%) β-glucosidase from almonds” value [2, 8] was under 5%.

With `C#CCOc1ccc2[nH]cc(O[C@@H]3O[C@H](CO)[C@@H](O)[C@H](O)[C@H]3O)c2c1Br` [Compound 26, 4-Bromo-5-propargyloxy-1H-indol-3-yl β-D-glucopyranoside] the “Yield (%) β-glucosidase from almonds” value [2, 8] was 56%.

`O=S(=O)([O-])CCC[N+]1(CCCO)CCN(c2nc(OCCOCCOCCOc3c(Br)cc4[nH]cc(O[C@@H]5O[C@H](CO)[C@@H](O)[C@H](O)[C@H]5O)c4c3Br)nc(OCCOCCOCCOc3c(Br)cc4[nH]cc(O[C@@H]5O[C@H](CO)[C@@H](O)[C@H](O)[C@H]5O)c4c3Br)n2)CC1` [Compound 46] was tested, and the “Total yield of indigoid dye (supernatant plus precipitate)” value ([5]; entries 1-4 of Table 2, [46] 300 to 10 μM) was 17-29%, the “Yield of indigoid dye (%) supernatant” value ([5]; entry 1: [46] 300 μM, 2 h, phosphate buffer containing NaCl (0.05M), ε = 2.6 × 10^4) was 6% and the “Yield of precipitate based on the monomer formula weight” value ([5]; larger scale (7.87 mg), conditions of entry 5 in Table 2) was 49%. The “Particle size of the precipitate (DLS, number mean)” value ([5]; precipitate suspended in H2O, 300 μM of 46, entry 5 conditions) was about 680 nm.
